ChEMBL document CHEMBL1201862, “PubChem BioAssay data set” (2004)
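Assay format: 96-well plates, 48-hour exposure. GI50: concentration for 50% inhibition of growth.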 The source made the active and inactive calls. Cut-off read from the data, not from the text of the source: active = GI50 up to about 1.1 µM and inactive = higher.

Columns and labels:
Test in all cases: NCI tumour cell line growth inhibition, 48 h
[1] = test system: MDA-N
[2] = test system: T47D
[3] = test system: OVCAR-4
[4] = test system: SK-OV-3
[5] = test system: UO-31
[6] = test system: DU-145
[7] = test system: SW-620
[8] = test system: OVCAR-5
[9] = test system: UACC-257
[10] = test system: TK-10
[11] = test system: RPMI-8226
[12] = test system: UACC-62
[13] = test system: NCI-H23
[14] = test system: CAKI-1
[15] = test system: Malme-3M
[16] = test system: SK-MEL-2
[17] = test system: HL-60
[18] = test system: EKVX
[19] = test system: SNB-75
[20] = test system: NCI-H226
[21] = test system: HCC 2998
[22] = test system: NCI-H460
[23] = test system: SK-MEL-5
[24] = test system: OVCAR-3
[25] = test system: A549
[26] = test system: MDA-MB-435
[27] = test system: HCT-116
[28] = test system: SF-295
[29] = test system: HOP-92
[30] = test system: COLO 205
[31] = test system: SR
[32] = test system: CCRF-CEM
[33] = test system: HOP-62
[34] = test system: RXF 393
[35] = test system: LOX IMVI
[36] = test system: MOLT-4
[37] = test system: M14
[38] = test system: MCF7
[39] = test system: HT-29
[40] = test system: SK-MEL-28
[41] = test system: OVCAR-8
[42] = test system: HCT-15
[43] = test system: SF-268
[44] = test system: A498
[45] = test system: ACHN
[46] = test system: SNB-19
[47] = test system: KM12
[48] = test system: SF-539
[49] = test system: 786-0
[50] = test system: IGROV-1
[51] = test system: NCI/ADR-RES
[52] = test system: K562
[53] = test system: PC-3
[54] = test system: NCI-H522
[55] = test system: SN12C
[56] = test system: Hs-578T
[57] = test system: MDA-MB-231
[58] = test system: U-251

In the case of `c1ccc2c(c1)[nH]c1c3ccccc3sc21`, the GI50 [1] is reported as > 100 µM (inactive), the GI50 [2] is reported as 38.3 µM (inactive) and the GI50 [3] is reported as > 100 µM (inactive). The GI50 [4] was > 100 µM (inactive), the GI50 [5] was > 100 µM (inactive) and the GI50 [6] was > 100 µM (inactive). For the same molecule, the GI50 [7] was > 100 µM (inactive), the GI50 [8] was > 100 µM (inactive) and the GI50 [9] was 36.5 µM (inactive). The GI50 [10] was > 100 µM (inactive), the GI50 [11] was > 100 µM (inactive) and the GI50 [12] was > 100 µM (inactive). The GI50 [13] was > 100 µM (inactive), the GI50 [14] was > 100 µM (inactive) and the GI50 [15] was > 100 µM (inactive). The GI50 [16] was > 100 µM (inactive), the GI50 [17] was > 100 µM (inactive) and the GI50 [18] was 26.4 µM (inactive). For the same molecule, the GI50 [19] was 8.41 µM (inactive), the GI50 [20] was > 100 µM (inactive) and the GI50 [21] was > 100 µM (inactive). The GI50 [22] was > 100 µM (inactive), the GI50 [23] was > 100 µM (inactive) and the GI50 [24] was > 100 µM (inactive). The GI50 [25] was 77.4 µM (inactive), the GI50 [26] was 99.1 µM (inactive) and the GI50 [27] was 82.6 µM (inactive). For the same molecule, the GI50 [28] was 38.1 µM (inactive), the GI50 [29] was > 100 µM (inactive) and the GI50 [30] was > 100 µM (inactive). The GI50 [31] was 23 µM (inactive), the GI50 [32] was > 100 µM (inactive) and the GI50 [33] was > 100 µM (inactive). The GI50 [34] was 26.5 µM (inactive), the GI50 [35] was > 100 µM (inactive) and the GI50 [36] was > 100 µM (inactive). For the same molecule, the GI50 [37] was > 100 µM (inactive), the GI50 [38] was 24.9 µM (inactive) and the GI50 [39] was > 100 µM (inactive). The GI50 [40] was > 100 µM (inactive), the GI50 [41] was > 100 µM (inactive) and the GI50 [42] was over 100 µM. For the same molecule, the GI50 [43] was > 100 µM (inactive), the GI50 [44] was > 100 µM (inactive) and the GI50 [45] was > 100 µM (inactive). The GI50 [46] was > 100 µM (inactive), the GI50 [47] was > 100 µM (inactive) and the GI50 [48] was > 100 µM (inactive). For the same molecule, the GI50 [49] was > 100 µM (inactive), the GI50 [50] was > 100 µM (inactive) and the GI50 [51] was > 100 µM (inactive). For the same molecule, the GI50 [52] was > 100 µM (inactive), the GI50 [53] was > 100 µM (inactive) and the GI50 [54] was > 100 µM (inactive). The GI50 [55] was > 100 µM (inactive), the GI50 [56] was > 100 µM (inactive) and the GI50 [57] was > 100 µM (inactive). For the same molecule, the GI50 [58] was 89.3 µM (inactive).
